Laboratory results as given in ChEMBL document CHEMBL1131977, “Synthesis and in vitro activity of new oxazolidinone antibacterial agents having substituted isoxazoles” (1999).
Values after ≈ are worked out from the molar mass of the structure shown.

Columns and labels:
Format in all cases: functional
Enterococcus faecium [1] = assay: In vitro antibacterial activity against Enterococcus faecium C6301 (E.f.2).
Staphylococcus aureus [2] = assay: In vitro antibacterial activity against Staphylococcus aureus (S. a.) ATCC 29213.
[3] = system: Staphylococcus epidermidis; assay: In vitro antibacterial activity against Staphylococcus epidermis (S.e.2) C2235.
Staphylococcus aureus [4] = assay: In vitro antibacterial activity against methicillin-susceptible Staphylococcus aureus (MSSA) C2214.
Streptococcus pyogenes [5] = assay: In vitro antibacterial activity against Streptococcus pyogenes C6003 (S.p.2).
Enterococcus faecalis = assay: In vitro antibacterial activity against Enterococcus faecalis C6291 (E.f.1).
Streptococcus pyogenes [6] = assay: In vitro antibacterial activity against Streptococcus pyogenes ATCC 8668 (S.p.1).
Enterococcus faecium [7] = assay: In vitro antibacterial activity against vancomycin-resistant Enterococcus faecium C6487 (VRE).
[8] = system: Staphylococcus epidermidis; assay: In vitro antibacterial activity against Staphylococcus epidermis (S.e.1) […].
Staphylococcus aureus [9] = assay: In vitro antibacterial activity against ciprofloxacin-resistant Staphylococcus aureus (CRSA) C6043.
Staphylococcus aureus [10] = assay: In vitro antibacterial activity against methicillin-resistant Staphylococcus aureus (MRSA) C6068.

Compound | MIC (Enterococcus faecium [1]) [µg/mL] | MIC (Staphylococcus aureus [2]) [µg/mL] | MIC [3] [µg/mL] | MIC (Staphylococcus aureus [4]) [µg/mL] | MIC (Streptococcus pyogenes [5]) [µg/mL] | MIC (Enterococcus faecalis) [µg/mL] | MIC (Streptococcus pyogenes [6]) [µg/mL] | MIC (Enterococcus faecium [7]) [µg/mL] | MIC [8] [µg/mL] | MIC (Staphylococcus aureus [9]) [µg/mL] | MIC (Staphylococcus aureus [10]) [µg/mL]
COc1cccc(-c2cc(CN3CCN(c4ccc(N5C[C@H](CNC(C)=O)OC5=O)cc4F)CC3)on2)c1 | 4 (≈ 7.64 µM) | 4 (≈ 7.64 µM) | 4 (≈ 7.64 µM) | 4 (≈ 7.64 µM) | 1 (≈ 1.91 µM) | 8 (≈ 15.3 µM) | 4 (≈ 7.64 µM) | 1 (≈ 1.91 µM) | 4 (≈ 7.64 µM) | 2 (≈ 3.82 µM) | 4 (≈ 7.64 µM)
CC(=O)NC[C@H]1CN(c2ccc(N3CCN(C(=O)c4cc(OCCF)no4)CC3)c(F)c2)C(=O)O1 | 1 (≈ 2.03 µM) | 4 (≈ 8.11 µM) | 2 (≈ 4.05 µM) | 2 (≈ 4.05 µM) | 0.5 (≈ 1.01 µM) | 2 (≈ 4.05 µM) | 0.5 (≈ 1.01 µM) | 1 (≈ 2.03 µM) | 1 (≈ 2.03 µM) | 2 (≈ 4.05 µM) | 2 (≈ 4.05 µM)
CC(=O)NC[C@H]1CN(c2ccc(N3CCN(Cc4cc(-c5ccc(C)cc5)no4)CC3)c(F)c2)C(=O)O1 | 8 (≈ 15.8 µM) | 32 (≈ 63 µM) | 8 (≈ 15.8 µM) | 32 (≈ 63 µM) | 4 (≈ 7.88 µM) | 16 (≈ 31.5 µM) | 4 (≈ 7.88 µM) | 8 (≈ 15.8 µM) | 4 (≈ 7.88 µM) | 32 (≈ 63 µM) | 8 (≈ 15.8 µM)
CC(=O)NC[C@H]1CN(c2ccc(N3CCN(C(=O)c4cc(Br)no4)CC3)c(F)c2)C(=O)O1 | 4 (≈ 7.84 µM) | 4 (≈ 7.84 µM) | 2 (≈ 3.92 µM) | 2 (≈ 3.92 µM) | 1 (≈ 1.96 µM) | 2 (≈ 3.92 µM) | 1 (≈ 1.96 µM) | 2 (≈ 3.92 µM) | 1 (≈ 1.96 µM) | 2 (≈ 3.92 µM) | 1 (≈ 1.96 µM)
CC(=O)NC[C@H]1CN(c2ccc(N3CCN(Cc4cc(-c5ccccn5)no4)CC3)c(F)c2)C(=O)O1 | 2 (≈ 4.04 µM) | 2 (≈ 4.04 µM) | 1 (≈ 2.02 µM) | 4 (≈ 8.09 µM) | 0.5 (≈ 1.01 µM) | 2 (≈ 4.04 µM) | 0.5 (≈ 1.01 µM) | 2 (≈ 4.04 µM) | 1 (≈ 2.02 µM) | 2 (≈ 4.04 µM) | 2 (≈ 4.04 µM)
CC(=O)NC[C@H]1CN(c2ccc(N3CCN(C(=O)CO)CC3)c(F)c2)C(=O)O1 [EPEREZOLID] | 1 (≈ 2.54 µM) | 2 (≈ 5.07 µM) | 1 (≈ 2.54 µM) | 2 (≈ 5.07 µM) | 0.5 (≈ 1.27 µM) | 2 (≈ 5.07 µM) | 0.25 (≈ 0.634 µM) | 1 (≈ 2.54 µM) | 0.5 (≈ 1.27 µM) | 2 (≈ 5.07 µM) | 1 (≈ 2.54 µM)
CC(=O)NC[C@H]1CN(c2ccc(N3CCN(C(=O)c4cc(-c5nccs5)no4)CC3)c(F)c2)C(=O)O1 | 1 (≈ 1.94 µM) | 2 (≈ 3.89 µM) | 0.5 (≈ 0.972 µM) | 1 (≈ 1.94 µM) | 0.5 (≈ 0.972 µM) | 1 (≈ 1.94 µM) | 0.25 (≈ 0.486 µM) | 0.5 (≈ 0.972 µM) | 0.5 (≈ 0.972 µM) | 0.5 (≈ 0.972 µM) | 0.5 (≈ 0.972 µM)
COc1ccc(-c2cc(CN3CCN(c4ccc(N5C[C@H](CNC(C)=O)OC5=O)cc4F)CC3)on2)cc1OC | 4 (≈ 7.23 µM) | 4 (≈ 7.23 µM) | 4 (≈ 7.23 µM) | 4 (≈ 7.23 µM) | 1 (≈ 1.81 µM) | 4 (≈ 7.23 µM) | 2 (≈ 3.61 µM) | 2 (≈ 3.61 µM) | 2 (≈ 3.61 µM) | 4 (≈ 7.23 µM) | 2 (≈ 3.61 µM)
CC(=O)NC[C@H]1CN(c2ccc(N3CCN(C(=O)c4cc(COC(N)=O)no4)CC3)c(F)c2)C(=O)O1 | 1 (≈ 1.98 µM) | 2 (≈ 3.96 µM) | 0.5 (≈ 0.991 µM) | 2 (≈ 3.96 µM) | 0.5 (≈ 0.991 µM) | 1 (≈ 1.98 µM) | 0.5 (≈ 0.991 µM) | 1 (≈ 1.98 µM) | 0.5 (≈ 0.991 µM) | 2 (≈ 3.96 µM) | 1 (≈ 1.98 µM)
CC(=O)NC[C@H]1CN(c2ccc(N3CCN(Cc4cc(-c5cccs5)no4)CC3)c(F)c2)C(=O)O1 | 2 (≈ 4 µM) | 4 (≈ 8.01 µM) | 1 (≈ 2 µM) | 4 (≈ 8.01 µM) | 1 (≈ 2 µM) | 2 (≈ 4 µM) | 1 (≈ 2 µM) | 22 (≈ 44 µM) | 4 (≈ 8.01 µM) | 2 (≈ 4 µM) | 4 (≈ 8.01 µM)
CN[C@H](CC(C)C)C(=O)N[C@H]1C(=O)N[C@@H](CC(N)=O)C(=O)N[C@H]2C(=O)N[C@H]3C(=O)N[C@H](C(=O)N[C@H](C(=O)O)c4cc(O)cc(O)c4-c4cc3ccc4O)[C@H](O)c3ccc(c(Cl)c3)Oc3cc2cc(c3O[C@@H]2O[C@H](CO)[C@@H](O)[C@H](O)[C@H]2O[C@H]2C[C@](C)(N)[C@H](O)[C@H](C)O2)Oc2ccc(cc2Cl)[C@H]1O [VANCOMYCIN] |  |  |  |  | 0.25 (≈ 0.173 µM) | 1 (≈ 0.69 µM) | 0.25 (≈ 0.173 µM) | > 32 | 0.5 (≈ 0.345 µM) |  | 
CC(=O)NC[C@H]1CN(c2ccc(N3CCN(C(=O)c4cc(COC(=O)N(C)C)no4)CC3)c(F)c2)C(=O)O1 | 2 (≈ 3.76 µM) | 4 (≈ 7.51 µM) | 2 (≈ 3.76 µM) | 4 (≈ 7.51 µM) | 0.5 (≈ 0.939 µM) | 2 (≈ 3.76 µM) | 0.5 (≈ 0.939 µM) | 2 (≈ 3.76 µM) | 1 (≈ 1.88 µM) | 4 (≈ 7.51 µM) | 2 (≈ 3.76 µM)
CC(=O)NC[C@H]1CN(c2ccc(N3CCN(C(=O)c4nccs4)CC3)c(F)c2)C(=O)O1 | 4 (≈ 8.94 µM) | 4 (≈ 8.94 µM) | 2 (≈ 4.47 µM) | 4 (≈ 8.94 µM) | 1 (≈ 2.23 µM) | 4 (≈ 8.94 µM) | 1 (≈ 2.23 µM) | 4 (≈ 8.94 µM) | 1 (≈ 2.23 µM) | 4 (≈ 8.94 µM) | 2 (≈ 4.47 µM)
